Results on 8 molecules are retold here after patent US20230000806A1, “COMPOSITIONS AND METHODS FOR GLUTATHIONE ENHANCEMENT FOR USE IN BRAIN HEALTH” (SOCIETE DES PRODUITS NESTLE S.A., priority 2019, published 2023).

Test [1] has as its system rat primary astrocytes. In words: Intracellular GSH in astrocytes in medium reduced in cysteine and methionine. The test is classed as cell-based. The settings on record: medium depleted of methionine and cystine, supplemented with 15% FBS.
Procedure: Intracellular GSH was measured in rat primary astrocytes in culture by using a GSH-Glo™ Assay, which is a luminescent-based assay for the detection and quantification of reduced and/or total glutathione levels in cells. The assay converted luciferin derivatives into luciferin in the presence of GSH. The reaction was catalyzed by a glutathione S-transferase (GST) enzyme supplied in the kit. The luciferin formed was detected in a coupled reaction using Ultra-Glo™ Recombinant Luciferase that generated a glow type luminescence that was proportional to the amount of glutathione present in cells. A standard curve was used for each biological replicate and at least 4 technical replicates were done for each condition and for each biological replicate. 10% of lysate of each technical and biological replicate was used to measure protein amount by BCA and used to normalize the GSH intracellular content to total proteins. […] Measurements were performed 48 hrs after treatment. […] To measure GSH increase after N-acetyl cysteine (Nac) and L-cysteine supplementation, rat primary astrocytes were cultured in medium depleted of methionine (a precursor of cysteine) and cystine but still supplemented with 15% FBS to not have a full depletion but rather a reduction of these amino acids. Experiments were performed only with the same batch of FBS to avoid any difference in amino-acid content amongst batches. […]
Another test deals with Nrf2. The test can be described thus: Measurement of nuclear Nrf2 in astrocytes (immunostaining). The test is classed as cell-based, rat. The note with it: 48 hrs after treatment; for increase Nrf2 levels in the cell nucleus: significant; for Nrf2 activation: vs control (water or 0.1% DSMO). The method, then:
Nuclear Nrf2 was measured in rat primary astrocytes in culture. The cells were stained with Nrf2 (Abcam ab89443 1:500), Tubulin (Abcam ab 89984 1:1000) antibodies and DAPI as nuclear counterstaining. We used the tubulin channel and the DAPI to segment the image in cytoplasmic and nuclear areas and measure the Nrf2 signal in these areas. We measure the average intensity in the nucleus and normalized to the average nuclear area. Cell count using DAPI was performed to establish toxicity or cell detachment for each condition. Images were taken to cover all the area of the well where cells were seeded and at least 6 technical replicates were done for each condition and for each biological replicate. Measurements were performed 48 hrs after treatment with each of the compounds: N-Acetylcysteine dissolved in water, while Puerarine, Sulfurophane, Taurine at different doses were dissolve in a 0.1% DSMO final solution. They were compared to the control in each condition which was water or 0.1% DSMO alone. Results were compared to the control condition for each biological replicate and for each condition. Statistics were done using Kruskal-Wallis Multiple Comparison test.

Test [2] has as its system rat primary astrocytes. The test can be described thus: Intracellular GSH by GSH-Glo Assay in rat primary astrocyte culture. Format: cell-based. The note with it: standard culture conditions (no cysteine depletion); 48 hrs after treatment; normalized to total proteins. The method, then: Intracellular GSH was measured in rat primary astrocytes in culture by using a GSH-Glo™ Assay, which is a luminescent-based assay for the detection and quantification of reduced and/or total glutathione levels in cells. The assay converted luciferin derivatives into luciferin in the presence of GSH. The reaction was catalyzed by a glutathione S-transferase (GST) enzyme supplied in the kit. The luciferin formed was detected in a coupled reaction using Ultra-Glo™ Recombinant Luciferase that generated a glow type luminescence that was proportional to the amount of glutathione present in cells. A standard curve was used for each biological replicate and at least 4 technical replicates were done for each condition and for each biological replicate. 10% of lysate of each technical and biological replicate was used to measure protein amount by BCA and used to normalize the GSH intracellular content to total proteins. Buthionine sulfoximine (BSO) a specific inhibitor of γ-glutamylcysteine ligase (GCL) was added at 15 mM at the time of the start of the treatment to confirm the specificity of the readout. Measurements were performed 48 hrs after treatment. Results were compared to the control condition for each biological replicate and for each condition.

For test [3], the system named is rat primary astrocytes. In words: Cytoplasmic reactive oxygen species (ROS) measurement with CellROX Deep Red. The test is classed as cell-based. The settings on record: 48 hrs after treatment; oxidative stress triggered by 250 μM tBHP for 1 hour; vs control. The method, then:
Cytoplasmic ROS was measured in rat primary astrocytes in culture by CellROX® Deep Red reagent, a novel cell-permeant dye with absorption/emission maxima of ˜644/665 nm. CellROX® Deep Red reagent while in a reduced state is non-fluorescent and becomes fluorescent upon oxidation by reactive oxygen species with emission maxima ˜665. CellMask™-green stains plasma membrane and DAPI stains nuclei. We used the green channel and the dapi to segment the image in cytoplasmic and nuclear areas and measure the CellROX deep red signal in these areas. As CellROX® Deep Red is a better read out for cytoplasmic ROS, we measure the average intensity in the cytoplasm and normalized to the average cytoplasmic area. Cell count using DAPI was performed to establish toxicity or cell detachment for each condition. Images were taken to cover all the area of the well where cells were seeded and at least 4 technical replicates were done for each condition and for each biological replicate. Measurements were performed at 48 hrs after treatment at baseline and after oxidative stress where oxidative stress was triggered by 250 μM tBHP for 1 hour. Results were compared to the control condition at baseline for each biological replicate and for each condition.

Test [4] has as its system rats. The test can be described thus: GSH levels in the nucleus accumbens of treated rats. The test is classed as in vivo, rat.
For test [5], the system named is rats. In words: Operant conditioning, progressive ratio reinforcement schedule (motivated behaviour). Format: in vivo, rat. The settings on record: vs vehicle. The method, then: Adult male outbred rats were trained for nose poke for saccharine food pellets for one week on an FR1 training schedule as described in the methods below. Rats were then treated with either normal drinking water (vehicle) or N-acetyl cysteine (NAC) in the drinking water (FIG. 22A) at a dose that was previously shown to enhance GSH levels (FIG. 22B). Following 2 weeks of treatment, rats were given an additional 2 training sessions, followed 24 h later by a progressive ratio session designed to test their motivated behaviour. During this progressive ratio session, rats have to increasingly work harder to earn the saccharine pellet, as described in the methods below. […] The breakpoint is defined as the last step in the session where the animals received a reward and is a direct correlate of their willingness to exert an effort. […] Animals: Adult male Wistar rats (Charles Rivers, Saint-German-Nuelle, France) weighing 250-275 gr at the beginning of the experiment were used for all experiments. Rats were individually housed in cages in housing colonies on a 12:12 h reversed light:dark cycle with lights on at 20:00, and lights-off at 8:00. Food and water were available ad libitum. Following a week of acclimatization to the animal facilities, rats were handled for 2 min per day for three days prior to the start of the experiments, in order to habituate to the experimenters. Operant conditioning: Ten days after introduction to the reversed day-night cycle, rats started training in a fixed ratio 1 reinforcement schedule (FR1). Operant chambers (Coulbourn Instruments, Holliston, Mass., US), placed in sound attenuating cubicles, were equipped with a grid, underneath which a tray with standard bedding material was placed for collection of feces and urine after each training session. Each chamber had one food tray and two ports placed on either side of the tray. A cue light was placed in each port and the food tray, whereas a house light was placed above the food tray. The right-hand side port of each chamber was designated as “active”, meaning that spontaneous nosepoking would result in the drop of one 45 mg food pellet (Bio-Serv, Flemington, N.J., USA) to the food tray. Upon nosepoking in the active port, the cue and house lights were turned off, while the tray light turned on and the pellet dropped to the food tray. […] Subsequently, the chamber returned to its initial condition. Each training session lasted maximally two hours or until a rat acquired 100 pellets. Each rat received six training sessions (one training on each day for five consecutive days, followed by two days without training and one training session on day 8). Only rats that finished at least two training sessions acquiring 100 pellets before the two-hour mark were used for progressive ratio experiments. Subsequently, rats were treated with N-acetyl cysteine in the drinking water (500 mg/L) or continued having access to normal water (control). After two weeks of treatment, rats were exposed to another two days of FR1 training to ensure their training performance was similar to pre-treatment levels. To test motivated behaviour, rats were exposed to a progressive ratio reinforcement schedule (progressive ratio test). Progressive ratio sessions were identical to training sessions except that the operant requirement in each trial (T) was the integer (rounded down) of the function 1.4^(T-1) starting at one nosepoke for the first three trials and increasing in subsequent trials for rats (Wanat et al. Nat Neurosci. 2013; 16(4):383-5). Progressive ratio sessions lasted two hours. Correct nosepokes (i.e. nosepokes in the active port and outside the timeout period, thus resulting in food delivery) were calculated to evaluate behavioural performance, as well as the number of acquired rewards and the last completed ratio (breakpoint). Investigation of the Nucleus accumbens was undertaken in cannulated rats which were then moved to a reverse light-dark cycle to recover for 10 days. […]

[6] abbreviates: NAC in the drinking water (500 mg/L), 2 weeks.
Setting [7] is: single infusion in the Nucleus Accumbens, 1 μl of 7 μg/μl, 24 hours before.

The structures appear in SMILES notation. Where only a bound is given, the exact number is not on record here.

Turning to `N[C@@H](CS)C(=O)O` [L-cysteine], the GSH intracellular level entry with rat primary astrocytes [1] is listed as “significantly increase the GSH intracellular level”.

For `C[S+]([O-])CCCCN=C=S` (stereo not drawn) [Sulfurophane], the “increase Nrf2 levels in the cell nucleus” value in the test on Nrf2 (2 μM) is given as at most 20%. For the same molecule, the intracellular glutathione result with rat primary astrocytes [2] is listed as “increases intracellular glutathione”. The “reactive oxygen species after oxidative stress” value (“reactive oxygen species” for short) in the test on rat primary astrocytes [3] is given as “decreases reactive oxygen species”.

Turning to `O=c1c(-c2ccc(O)cc2)coc2c([C@@H]3O[C@H](CO)[C@@H](O)[C@H](O)[C@H]3O)c(O)ccc12` [Puerarine], in the test with Nrf2 (highest dose of 10 μm), the “increase Nrf2 levels in the cell nucleus” value was at most 20%. In addition, in the test with rat primary astrocytes [2], the intracellular glutathione entry is reported as “increases intracellular glutathione”. Besides, the “reactive oxygen species” value in the test on rat primary astrocytes [3] is reported as “decreases reactive oxygen species after oxidative stress in a dose dependent manner”.

For the molecule `CCNC(=O)CC[C@H](N)C(=O)O` [L-theanine], the intracellular glutathione entry with rat primary astrocytes [2] is “increases intracellular glutathione”. For the same molecule, the “reactive oxygen species” value with rat primary astrocytes [3] is recorded as “decreases reactive oxygen species”.

On to `CC(=O)N[C@@H](CS)C(=O)O` [N-Acetylcysteine, reference compound], for which the Nrf2 activation entry in the test with Nrf2 is “does not activate Nrf2”. Also, in the test on rats [4] (NAC in the drinking water (500 mg/L), 2 weeks, vs vehicle treated rats), the “GSH in the nucleus accumbens” value is given as “enhanced GSH in the nucleus accumbens”. Besides, in the test with rat primary astrocytes [1], the GSH intracellular level result was “significantly increase the GSH intracellular level”. In addition, in the test with rats [5] (setting [6]), the “breakpoint level in progressive ratio session” value was “significantly higher breakpoint level”, the “nose pokes in progressive ratio session” value is “significantly more nose pokes” and the “number of rewards in progressive ratio session” value is reported as “greater number of rewards”. The intracellular glutathione entry in the test on rat primary astrocytes [2] is on record as “does not increase intracellular glutathione”. Also, in the test with rat primary astrocytes [3], the “reactive oxygen species” value is listed as “decreases reactive oxygen species”.

For `CCCCS(=N)(=O)CCC(N)C(=O)O` (stereo not drawn) [BSO, Buthionine sulfoximine], in the test on rats [4] (single infusion in the Nucleus Accumbens, 1 μl of 7 μg/μl, 24 hours before the test, vs vehicle), the “reduction of GSH levels in the Nucleus Accumbens” value worked out at 29%. Moreover, in the test with rats [5] (setting [7]), the “change in breakpoint (PR-schedule)” value is −68%, the “change in correct nosepokes (PR-schedule)” value is listed as −60% and the “change in rewards (PR-schedule)” value is −22%.

As to `NCCS(=O)(=O)O` [Taurine, 2-aminoethanesulfonic acid], the Nrf2 activation entry with Nrf2 was “does not activate Nrf2”. Moreover, the intracellular glutathione result in the test with rat primary astrocytes [2] is reported as “increases intracellular glutathione”. For the same molecule, the “reactive oxygen species” value in the test with rat primary astrocytes [3] is “decreases reactive oxygen species”.

In the case of `C[N+](C)(C)C(Cc1c[nH]c(S)n1)C(=O)O.[OH-]` (stereo not drawn) [Ergothioneine, 1-carboxy-2-[2-mercaptoimidazole-4-(or 5)-yl]ethyl]-trimethyl-ammonium hydroxide], the “increase Nrf2 levels in the cell nucleus” value in the test on Nrf2 (0.5 mM) is reported as at most 18%. Further, the intracellular glutathione result with rat primary astrocytes [2] is “increases intracellular glutathione”. Further, the “reactive oxygen species” value in the test with rat primary astrocytes [3] was “decreases reactive oxygen species”.
